Measurements: PubChem BioAssay AID1963980 (Molecular Pharmacology Branch, DTP, NCI, 2024)

What follows are compounds tested on 475296-252-R-J1-PDC spheroid viability (assay: Anticancer human tumor 475296-252-R-J1-PDC patient-derived rectal carcinoma cell line growth inhibition [PI3K]). Settings: second compound 0.0316 µM; first compound 3.16 µM; stronger effect = lower value; spheroids with HUVEC and MSC.
Method in brief: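 Viability of mixed-cell spheroids was determined after exposure to pairwise combinations, one partner being inavolisib, alpelisib, duvelisib or copanlisib. Highest tested concentration matched clinical Cmax where known and 10 microM where not, descending in half-log steps.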
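Further: spheroids exposed to agents for seven days before readout.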

Row | SMILES | viability, T/C [%]
1 | CC(Cn1ccc(-c2ccc(C#N)c(Cl)c2)n1)NC(=O)c1cc(C(C)O)[nH]n1 (stereo not drawn) + CC(Nc1ncnc2nc[nH]c12)c1cc2cccc(Cl)c2c(=O)n1-c1ccccc1 | 102
2 | Cn1ncc(Cl)c1-c1cc(C(=O)NC(CN)Cc2cccc(F)c2)sc1Cl (stereo not drawn) + CC(Nc1ncnc2nc[nH]c12)c1cc2cccc(Cl)c2c(=O)n1-c1ccccc1 | 71.7
3 | Cn1nccc1Nc1nccc(-c2ccn(C(CO)c3ccc(Cl)c(F)c3)c(=O)c2)n1 (stereo not drawn) + CC(Nc1ncnc2nc[nH]c12)c1cc2cccc(Cl)c2c(=O)n1-c1ccccc1 | 92.9

Same assay, conditions: second compound 0.0316 µM; first compound 10 µM; stronger effect = lower value; spheroids with HUVEC and MSC

Row | SMILES | viability, T/C [%]
4 | C#Cc1c(F)ccc2cc(O)cc(-c3ncc4c(N5CC6CCC(C5)N6)nc(OCC56CCCN5CC(F)C6)nc4c3F)c12 (stereo not drawn) + CC(Nc1ncnc2nc[nH]c12)c1cc2cccc(Cl)c2c(=O)n1-c1ccccc1 | 46.7
5 | C=CC(=O)N1CCN(c2nc(=O)n(-c3c(C)ccnc3C(C)C)c3nc(-c4c(O)cccc4F)c(F)cc23)C(C)C1 (stereo not drawn) + CC(Nc1ncnc2nc[nH]c12)c1cc2cccc(Cl)c2c(=O)n1-c1ccccc1 | 103
6 | CC(Cn1ccc(-c2ccc(C#N)c(Cl)c2)n1)NC(=O)c1cc(C(C)O)[nH]n1 (stereo not drawn) + CC(Nc1ncnc2nc[nH]c12)c1cc2cccc(Cl)c2c(=O)n1-c1ccccc1 | 104
7 | Cn1ncc(Cl)c1-c1cc(C(=O)NC(CN)Cc2cccc(F)c2)sc1Cl (stereo not drawn) + CC(Nc1ncnc2nc[nH]c12)c1cc2cccc(Cl)c2c(=O)n1-c1ccccc1 | 61.5
8 | Cn1nccc1Nc1nccc(-c2ccn(C(CO)c3ccc(Cl)c(F)c3)c(=O)c2)n1 (stereo not drawn) + CC(Nc1ncnc2nc[nH]c12)c1cc2cccc(Cl)c2c(=O)n1-c1ccccc1 | 70.7

Same assay, conditions: second compound 0.1 µM; first compound 0.0316 µM; stronger effect = lower value; spheroids with HUVEC and MSC

Row | SMILES | viability, T/C [%]
9 | C#Cc1c(F)ccc2cc(O)cc(-c3ncc4c(N5CC6CCC(C5)N6)nc(OCC56CCCN5CC(F)C6)nc4c3F)c12 (stereo not drawn) + CC(Nc1ncnc2nc[nH]c12)c1cc2cccc(Cl)c2c(=O)n1-c1ccccc1 | 91.5
10 | C=CC(=O)N1CCN(c2nc(=O)n(-c3c(C)ccnc3C(C)C)c3nc(-c4c(O)cccc4F)c(F)cc23)C(C)C1 (stereo not drawn) + CC(Nc1ncnc2nc[nH]c12)c1cc2cccc(Cl)c2c(=O)n1-c1ccccc1 | 95.7
11 | CC(Cn1ccc(-c2ccc(C#N)c(Cl)c2)n1)NC(=O)c1cc(C(C)O)[nH]n1 (stereo not drawn) + CC(Nc1ncnc2nc[nH]c12)c1cc2cccc(Cl)c2c(=O)n1-c1ccccc1 | 99.1
12 | Cn1ncc(Cl)c1-c1cc(C(=O)NC(CN)Cc2cccc(F)c2)sc1Cl (stereo not drawn) + CC(Nc1ncnc2nc[nH]c12)c1cc2cccc(Cl)c2c(=O)n1-c1ccccc1 | 95.7
13 | Cn1nccc1Nc1nccc(-c2ccn(C(CO)c3ccc(Cl)c(F)c3)c(=O)c2)n1 (stereo not drawn) + CC(Nc1ncnc2nc[nH]c12)c1cc2cccc(Cl)c2c(=O)n1-c1ccccc1 | 90.2

Same assay, conditions: second compound 0.1 µM; first compound 0.1 µM; stronger effect = lower value; spheroids with HUVEC and MSC

Row | SMILES | viability, T/C [%]
14 | C#Cc1c(F)ccc2cc(O)cc(-c3ncc4c(N5CC6CCC(C5)N6)nc(OCC56CCCN5CC(F)C6)nc4c3F)c12 (stereo not drawn) + CC(Nc1ncnc2nc[nH]c12)c1cc2cccc(Cl)c2c(=O)n1-c1ccccc1 | 96.5
15 | C=CC(=O)N1CCN(c2nc(=O)n(-c3c(C)ccnc3C(C)C)c3nc(-c4c(O)cccc4F)c(F)cc23)C(C)C1 (stereo not drawn) + CC(Nc1ncnc2nc[nH]c12)c1cc2cccc(Cl)c2c(=O)n1-c1ccccc1 | 92
16 | CC(Cn1ccc(-c2ccc(C#N)c(Cl)c2)n1)NC(=O)c1cc(C(C)O)[nH]n1 (stereo not drawn) + CC(Nc1ncnc2nc[nH]c12)c1cc2cccc(Cl)c2c(=O)n1-c1ccccc1 | 98.5
17 | Cn1ncc(Cl)c1-c1cc(C(=O)NC(CN)Cc2cccc(F)c2)sc1Cl (stereo not drawn) + CC(Nc1ncnc2nc[nH]c12)c1cc2cccc(Cl)c2c(=O)n1-c1ccccc1 | 80
18 | Cn1nccc1Nc1nccc(-c2ccn(C(CO)c3ccc(Cl)c(F)c3)c(=O)c2)n1 (stereo not drawn) + CC(Nc1ncnc2nc[nH]c12)c1cc2cccc(Cl)c2c(=O)n1-c1ccccc1 | 91.3

Same assay, conditions: second compound 0.1 µM; first compound 0.316 µM; stronger effect = lower value; spheroids with HUVEC and MSC

Row | SMILES | viability, T/C [%]
19 | C#Cc1c(F)ccc2cc(O)cc(-c3ncc4c(N5CC6CCC(C5)N6)nc(OCC56CCCN5CC(F)C6)nc4c3F)c12 (stereo not drawn) + CC(Nc1ncnc2nc[nH]c12)c1cc2cccc(Cl)c2c(=O)n1-c1ccccc1 | 79.7
20 | C=CC(=O)N1CCN(c2nc(=O)n(-c3c(C)ccnc3C(C)C)c3nc(-c4c(O)cccc4F)c(F)cc23)C(C)C1 (stereo not drawn) + CC(Nc1ncnc2nc[nH]c12)c1cc2cccc(Cl)c2c(=O)n1-c1ccccc1 | 105
21 | CC(Cn1ccc(-c2ccc(C#N)c(Cl)c2)n1)NC(=O)c1cc(C(C)O)[nH]n1 (stereo not drawn) + CC(Nc1ncnc2nc[nH]c12)c1cc2cccc(Cl)c2c(=O)n1-c1ccccc1 | 91.7
22 | Cn1ncc(Cl)c1-c1cc(C(=O)NC(CN)Cc2cccc(F)c2)sc1Cl (stereo not drawn) + CC(Nc1ncnc2nc[nH]c12)c1cc2cccc(Cl)c2c(=O)n1-c1ccccc1 | 64.9
23 | Cn1nccc1Nc1nccc(-c2ccn(C(CO)c3ccc(Cl)c(F)c3)c(=O)c2)n1 (stereo not drawn) + CC(Nc1ncnc2nc[nH]c12)c1cc2cccc(Cl)c2c(=O)n1-c1ccccc1 | 96.1

Same assay, conditions: second compound 0.1 µM; first compound 1 µM; stronger effect = lower value; spheroids with HUVEC and MSC

Row | SMILES | viability, T/C [%]
24 | C#Cc1c(F)ccc2cc(O)cc(-c3ncc4c(N5CC6CCC(C5)N6)nc(OCC56CCCN5CC(F)C6)nc4c3F)c12 (stereo not drawn) + CC(Nc1ncnc2nc[nH]c12)c1cc2cccc(Cl)c2c(=O)n1-c1ccccc1 | 71.7
25 | C=CC(=O)N1CCN(c2nc(=O)n(-c3c(C)ccnc3C(C)C)c3nc(-c4c(O)cccc4F)c(F)cc23)C(C)C1 (stereo not drawn) + CC(Nc1ncnc2nc[nH]c12)c1cc2cccc(Cl)c2c(=O)n1-c1ccccc1 | 87.9
26 | CC(Cn1ccc(-c2ccc(C#N)c(Cl)c2)n1)NC(=O)c1cc(C(C)O)[nH]n1 (stereo not drawn) + CC(Nc1ncnc2nc[nH]c12)c1cc2cccc(Cl)c2c(=O)n1-c1ccccc1 | 89
27 | Cn1ncc(Cl)c1-c1cc(C(=O)NC(CN)Cc2cccc(F)c2)sc1Cl (stereo not drawn) + CC(Nc1ncnc2nc[nH]c12)c1cc2cccc(Cl)c2c(=O)n1-c1ccccc1 | 63.6
28 | Cn1nccc1Nc1nccc(-c2ccn(C(CO)c3ccc(Cl)c(F)c3)c(=O)c2)n1 (stereo not drawn) + CC(Nc1ncnc2nc[nH]c12)c1cc2cccc(Cl)c2c(=O)n1-c1ccccc1 | 86.9

Same assay, conditions: second compound 0.1 µM; first compound 3.16 µM; stronger effect = lower value; spheroids with HUVEC and MSC

Row | SMILES | viability, T/C [%]
29 | C#Cc1c(F)ccc2cc(O)cc(-c3ncc4c(N5CC6CCC(C5)N6)nc(OCC56CCCN5CC(F)C6)nc4c3F)c12 (stereo not drawn) + CC(Nc1ncnc2nc[nH]c12)c1cc2cccc(Cl)c2c(=O)n1-c1ccccc1 | 68.1
30 | C=CC(=O)N1CCN(c2nc(=O)n(-c3c(C)ccnc3C(C)C)c3nc(-c4c(O)cccc4F)c(F)cc23)C(C)C1 (stereo not drawn) + CC(Nc1ncnc2nc[nH]c12)c1cc2cccc(Cl)c2c(=O)n1-c1ccccc1 | 109
31 | CC(Cn1ccc(-c2ccc(C#N)c(Cl)c2)n1)NC(=O)c1cc(C(C)O)[nH]n1 (stereo not drawn) + CC(Nc1ncnc2nc[nH]c12)c1cc2cccc(Cl)c2c(=O)n1-c1ccccc1 | 101
32 | Cn1ncc(Cl)c1-c1cc(C(=O)NC(CN)Cc2cccc(F)c2)sc1Cl (stereo not drawn) + CC(Nc1ncnc2nc[nH]c12)c1cc2cccc(Cl)c2c(=O)n1-c1ccccc1 | 70.2
33 | Cn1nccc1Nc1nccc(-c2ccn(C(CO)c3ccc(Cl)c(F)c3)c(=O)c2)n1 (stereo not drawn) + CC(Nc1ncnc2nc[nH]c12)c1cc2cccc(Cl)c2c(=O)n1-c1ccccc1 | 80.7

Same assay, conditions: second compound 0.1 µM; first compound 10 µM; stronger effect = lower value; spheroids with HUVEC and MSC

Row | SMILES | viability, T/C [%]
34 | C#Cc1c(F)ccc2cc(O)cc(-c3ncc4c(N5CC6CCC(C5)N6)nc(OCC56CCCN5CC(F)C6)nc4c3F)c12 (stereo not drawn) + CC(Nc1ncnc2nc[nH]c12)c1cc2cccc(Cl)c2c(=O)n1-c1ccccc1 | 54.4
35 | C=CC(=O)N1CCN(c2nc(=O)n(-c3c(C)ccnc3C(C)C)c3nc(-c4c(O)cccc4F)c(F)cc23)C(C)C1 (stereo not drawn) + CC(Nc1ncnc2nc[nH]c12)c1cc2cccc(Cl)c2c(=O)n1-c1ccccc1 | 101
36 | CC(Cn1ccc(-c2ccc(C#N)c(Cl)c2)n1)NC(=O)c1cc(C(C)O)[nH]n1 (stereo not drawn) + CC(Nc1ncnc2nc[nH]c12)c1cc2cccc(Cl)c2c(=O)n1-c1ccccc1 | 84.1
37 | Cn1ncc(Cl)c1-c1cc(C(=O)NC(CN)Cc2cccc(F)c2)sc1Cl (stereo not drawn) + CC(Nc1ncnc2nc[nH]c12)c1cc2cccc(Cl)c2c(=O)n1-c1ccccc1 | 57
38 | Cn1nccc1Nc1nccc(-c2ccn(C(CO)c3ccc(Cl)c(F)c3)c(=O)c2)n1 (stereo not drawn) + CC(Nc1ncnc2nc[nH]c12)c1cc2cccc(Cl)c2c(=O)n1-c1ccccc1 | 77.4

Same assay, conditions: second compound 0.316 µM; first compound 0.0316 µM; stronger effect = lower value; spheroids with HUVEC and MSC

Row | SMILES | viability, T/C [%]
39 | C#Cc1c(F)ccc2cc(O)cc(-c3ncc4c(N5CC6CCC(C5)N6)nc(OCC56CCCN5CC(F)C6)nc4c3F)c12 (stereo not drawn) + CC(Nc1ncnc2nc[nH]c12)c1cc2cccc(Cl)c2c(=O)n1-c1ccccc1 | 96.7
40 | C=CC(=O)N1CCN(c2nc(=O)n(-c3c(C)ccnc3C(C)C)c3nc(-c4c(O)cccc4F)c(F)cc23)C(C)C1 (stereo not drawn) + CC(Nc1ncnc2nc[nH]c12)c1cc2cccc(Cl)c2c(=O)n1-c1ccccc1 | 93.9
41 | CC(Cn1ccc(-c2ccc(C#N)c(Cl)c2)n1)NC(=O)c1cc(C(C)O)[nH]n1 (stereo not drawn) + CC(Nc1ncnc2nc[nH]c12)c1cc2cccc(Cl)c2c(=O)n1-c1ccccc1 | 97
42 | Cn1ncc(Cl)c1-c1cc(C(=O)NC(CN)Cc2cccc(F)c2)sc1Cl (stereo not drawn) + CC(Nc1ncnc2nc[nH]c12)c1cc2cccc(Cl)c2c(=O)n1-c1ccccc1 | 90.5
43 | Cn1nccc1Nc1nccc(-c2ccn(C(CO)c3ccc(Cl)c(F)c3)c(=O)c2)n1 (stereo not drawn) + CC(Nc1ncnc2nc[nH]c12)c1cc2cccc(Cl)c2c(=O)n1-c1ccccc1 | 93.4

Same assay, conditions: second compound 0.316 µM; first compound 0.1 µM; stronger effect = lower value; spheroids with HUVEC and MSC

Row | SMILES | viability, T/C [%]
44 | C#Cc1c(F)ccc2cc(O)cc(-c3ncc4c(N5CC6CCC(C5)N6)nc(OCC56CCCN5CC(F)C6)nc4c3F)c12 (stereo not drawn) + CC(Nc1ncnc2nc[nH]c12)c1cc2cccc(Cl)c2c(=O)n1-c1ccccc1 | 83.3
45 | C=CC(=O)N1CCN(c2nc(=O)n(-c3c(C)ccnc3C(C)C)c3nc(-c4c(O)cccc4F)c(F)cc23)C(C)C1 (stereo not drawn) + CC(Nc1ncnc2nc[nH]c12)c1cc2cccc(Cl)c2c(=O)n1-c1ccccc1 | 90.2
46 | CC(Cn1ccc(-c2ccc(C#N)c(Cl)c2)n1)NC(=O)c1cc(C(C)O)[nH]n1 (stereo not drawn) + CC(Nc1ncnc2nc[nH]c12)c1cc2cccc(Cl)c2c(=O)n1-c1ccccc1 | 97.8
47 | Cn1ncc(Cl)c1-c1cc(C(=O)NC(CN)Cc2cccc(F)c2)sc1Cl (stereo not drawn) + CC(Nc1ncnc2nc[nH]c12)c1cc2cccc(Cl)c2c(=O)n1-c1ccccc1 | 77.6
48 | Cn1nccc1Nc1nccc(-c2ccn(C(CO)c3ccc(Cl)c(F)c3)c(=O)c2)n1 (stereo not drawn) + CC(Nc1ncnc2nc[nH]c12)c1cc2cccc(Cl)c2c(=O)n1-c1ccccc1 | 95.2

Same assay, conditions: second compound 0.316 µM; first compound 0.316 µM; stronger effect = lower value; spheroids with HUVEC and MSC

Row | SMILES | viability, T/C [%]
49 | C#Cc1c(F)ccc2cc(O)cc(-c3ncc4c(N5CC6CCC(C5)N6)nc(OCC56CCCN5CC(F)C6)nc4c3F)c12 (stereo not drawn) + CC(Nc1ncnc2nc[nH]c12)c1cc2cccc(Cl)c2c(=O)n1-c1ccccc1 | 79.3
50 | C=CC(=O)N1CCN(c2nc(=O)n(-c3c(C)ccnc3C(C)C)c3nc(-c4c(O)cccc4F)c(F)cc23)C(C)C1 (stereo not drawn) + CC(Nc1ncnc2nc[nH]c12)c1cc2cccc(Cl)c2c(=O)n1-c1ccccc1 | 87.4
51 | CC(Cn1ccc(-c2ccc(C#N)c(Cl)c2)n1)NC(=O)c1cc(C(C)O)[nH]n1 (stereo not drawn) + CC(Nc1ncnc2nc[nH]c12)c1cc2cccc(Cl)c2c(=O)n1-c1ccccc1 | 94.1
52 | Cn1ncc(Cl)c1-c1cc(C(=O)NC(CN)Cc2cccc(F)c2)sc1Cl (stereo not drawn) + CC(Nc1ncnc2nc[nH]c12)c1cc2cccc(Cl)c2c(=O)n1-c1ccccc1 | 56.5
53 | Cn1nccc1Nc1nccc(-c2ccn(C(CO)c3ccc(Cl)c(F)c3)c(=O)c2)n1 (stereo not drawn) + CC(Nc1ncnc2nc[nH]c12)c1cc2cccc(Cl)c2c(=O)n1-c1ccccc1 | 101
